In patent US9012482B2, “Drug containing benzophenone derivative or its salt” (Toyama Chemical Co., Ltd., priority 2007, dated 2015):

What was measured:
Format in all cases: in vivo, mouse (DBA/1 J)
RANKL mRNA = RANKL mRNA expression in hind paws of mice with type II collagen-induced arthritis (real-time PCR)
Protocol: Male DBA/1 J mice at 8-week old (Charles River Laboratories Japan, Inc.) were used. Bovine type II collagen (KOKEN CO., LTD.) dissolved at 2 mg/mL in 0.1 mol/L acetic acid was mixed and emulsified with an equal volume of Freund's complete adjuvant (Difco Laboratories, Inc.), and then 0.2 mL of the emulsion was intradermally injected at the tail head of each mouse. The same treatment was carried out 21 days after the first immunization so that type II collagen-induced arthritis was induced in mice. T-5224 was dissolved in the 2-fold molar amount of sodium hydroxide solution, and then water and polyvinylpyrrolidone (PVP) at 3-fold weight of T-5224 were added to yield 3 mg/mL of T-5224-dosing solution. T-5224 at 30 mg/kg was orally administered once daily from 21 to 34 days after the first immunization. PVP solution was administered to the mice in Control group.
On the next day of final administration, the hind paws were collected. After the excision of claws and skin, they were immersed in RNA-stabilizing agent (RNAlater, Ambion, Inc.) and kept in a refrigerator overnight. Then RNA-stabilizing agent was wiped up, and the hind paws were cryopreserved and crushed by pressing under cooling with the liquid nitrogen. […]
(§1) RT product (100 ng, equivalent amount to RNA) was mixed with 25 μL of quantitative PCR reagent (qPCR Mastermix, Eurogentec S.A.), 2.5 μL of probe/primer solution (TaqMan gene expression assays tumor necrosis factor (ligand) superfamily member 11 Mus musculus, Applied Biosystems) and RNase-free water (Takara Inc.) in total volume of 50 μL, and then PCR reaction (hold at 50° C. for 2 min, hold at 95° C. for 10 min, 40 cycles at 95° C. for 15 sec and at 60° C. for 1 min) was carried out using real-time PCR system (ABI PRISM 7700 sequence detection system, Applied Biosystems) to measure RANKL mRNA. […] The levels of RANKL mRNA and OPG mRNA were expressed as the normalized ratio to Hprt1 mRNA amount.

OPG mRNA = OPG mRNA expression in hind paws of mice with type II collagen-induced arthritis (real-time PCR); conditions: 30 mg/kg orally once daily
Protocol: Male DBA/1 J mice at 8-week old (Charles River Laboratories Japan, Inc.) were used. Bovine type II collagen (KOKEN CO., LTD.) dissolved at 2 mg/mL in 0.1 mol/L acetic acid was mixed and emulsified with an equal volume of Freund's complete adjuvant (Difco Laboratories, Inc.), and then 0.2 mL of the emulsion was intradermally injected at the tail head of each mouse. The same treatment was carried out 21 days after the first immunization so that type II collagen-induced arthritis was induced in mice. […]
as §1

[1] = system: femora of mice with type II collagen-induced arthritis; test: Osteoporosis in femur of mice with type II collagen-induced arthritis: bone density as CT value (μCT)
Protocol: The induction of mouse type II collagen-induced arthritis and the preparation of T-5224-dosing solution (1 mg/mL) were carried out by the same procedure in Example 1. T-5224 at 10 mg/kg was orally administered once daily from 21 to 49 days after the first immunization. PVP solution was administered to the mice in Control group.
The femora isolated on the next day of final administration were fixed with formalin, and then scanned using μCT scanner system (MCT-100CB, Hitachi, Ltd.) (X-ray tube voltage: 90.0 kV, X-ray tube current: 100 iris: 3630, magnification: ×5, resolution: 30 μm). Bone density was evaluated as CT value using 3D CT image (“img” format) assembled by μCT scanner system and bone morphometry software (TRI-3D/BON, Ratoc System Engineering Co., Ltd.) according to the manufacturer's protocol. The evaluation site was set on a metaphyseal slice with 0.35 mm thickness at a point 3% of the length of the femur from the distal growth plate, according to the report of Jochems C. et al. [Arthritis Research and Therapy, 2005, Vol. 7, page R837-R843].

## O=C(O)CCc1cc(C(=O)c2ccc(OC3CCCC3)cc2O)ccc1OCc1ccc2c(O)noc2c1 [T-5224]
RANKL mRNA; 30 mg/kg orally once daily, days 21 to 34, hind paws
  inhibition of the increase of RANKL mRNA level: 84%
RANKL mRNA; hind paws of mice with type II collagen-induced arthritis, 30 mg/kg orally
  regulatory effect on expression of RANKL/OPG (in words): controlling the expression of RANKL/OPG to normal level
RANKL mRNA; hind paws, collagen-induced arthritis mice, 30 mg/kg orally once daily, days 21 to 34 after first immunization, Normal 0.096, Control 0.927
  RANKL mRNA level (normalized ratio to Hprt1 mRNA amount): 0.224
OPG mRNA; days 21 to 34
  inhibition of the decrease of OPG mRNA level: 68%
OPG mRNA; collagen-induced arthritis mice, days 21 to 34 after first immunization, Normal 0.375, Control 0.156
  OPG mRNA level (normalized ratio to Hprt1 mRNA amount): 0.306
[1]; 10 mg/kg orally once daily, days 21 to 49, femur
  inhibition of the reduction of CT value: 49%
[1]; femur metaphyseal slice, 10 mg/kg orally once daily, days 21 to 49 after first immunization, Normal 761, Control 657
  CT Value (bone density): 708
[1]; non-arthritic region of mice with type II collagen-induced arthritis, 10 mg/kg orally
  effect on development of osteoporosis in femora (in words): inhibited the development of osteoporosis in femora
